{"source": "patent US12673038B2", "about": "“Antimycotic methoxyflavone and fluconazole combination for inhibiting cryptococcus” (Karl-Franzens-Universität Graz, priority 2019, dated 2026)", "data": [{"tested_on": "C. albicans", "experiment": "In vitro antifungal activity of flavone in combination with azoles, growth via OD490", "assay_type": "cell-based, Candida albicans", "conditions": "OD490, flavone plus azole vs each alone", "values": [{"smiles": "COc1ccccc1-c1cc(=O)c2ccccc2o1", "note": "[2′-MF, 2′-methoxyflavone]", "enhancement of the antifungal activity of azoles in the presence of the flavone": "enhancement of the antifungal activity"}, {"smiles": "COc1cc(OC)c2c(=O)cc(-c3ccc(OC)c(OC)c3)oc2c1", "note": "[3′,4′,5,7-TMF, 3′,4′,5,7-tetrametoxyflavone]", "enhancement of the antifungal activity of azoles in the presence of the flavone": "enhancement of the antifungal activity"}, {"smiles": "COc1cc(-c2cc(=O)c3c(OC)c(OC)c(OC)cc3o2)cc(OC)c1OC", "note": "[3′,4′,5′,5,6,7-HMF, 3′,4′,5′,5,6,7-hexymethoxyflaovne]", "enhancement of the antifungal activity of azoles in the presence of the flavone": "enhancement of the antifungal activity"}, {"smiles": "O=c1cc(-c2ccccc2)oc2ccc3ccccc3c12", "note": "[5,6-BF, 5,6-benzoflavone]", "enhancement of the antifungal activity of azoles in the presence of the flavone": "enhancement of the antifungal activity"}, {"smiles": "O=c1cc(-c2ccccc2)oc2c1ccc1ccccc12", "note": "[7,8-BF, 7,8-benzoflavone]", "enhancement of the antifungal activity of azoles in the presence of the flavone": "enhancement of the antifungal activity"}, {"smiles": "COc1ccc2c(=O)cc(-c3ccccc3)oc2c1", "note": "[7-MF, 7-methoxyflavone]", "enhancement of the antifungal activity of azoles in the presence of the flavone": "enhancement of the antifungal activity"}]}, {"tested_on": "fungi including Aspergillus and Fusarium species", "experiment": "not given", "conditions": "Weidenbörner et al., Mycol. Res. 101 (1997); cited from earlier work", "values": [{"smiles": "O=c1cc(-c2ccccc2)oc2ccccc12", "note": "[flavone]", "antifungal effect": "displays an antifungal effect"}]}]}
